The values that follow come from patent US10519177B2, “Heterocyclic compounds and uses thereof” (Plexxikon Inc., priority 2013, dated 2019).

One assay has as its target BRD4-BD12 (1-477) (Homo sapiens (Human), UniProt O60885). Kind of assay: Alphascreen binding assay BRD4-BD12. The note with it: BRD4(1 2) H4; read-out: Biochemical activity (IC50 μM) BRD4(1 2) H4. The method in brief:
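First, compound was preincubated 1 h at room temperature with the His-tagged BRD4 protein (BD1 44-164 or tandem BD12 1-477) and acetylated H4 peptide. Next, donor and acceptor beads were added at 7.5 μg/ml final. After 30 min, AlphaScreen emission was recorded.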

A further assay has as its system MV-4-11 cells. Kind of assay: Oncology cell growth assay MV-4-11 (CellTiter Glo). As to conditions: Homo sapiens, MV4-11, 72 h; MV-4-11, 3d growth; read-out: Cell activity (IC50 μM) MV-4-11 3d-Growth. Format: cell-based. A digest of the protocol:
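MV-4-11 AML cells (MLL-AF4), 3000 per well, exposed to 8-point 1:3 compound titration from 10 μM top concentration (0.2% DMSO) for 72 h. Viability by CellTiter Glo luminescence, normalized to DMSO controls; pIC50 from four-parameter curve fit.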

Molecules are shown by their SMILES.

As to `Cc1noc(C)c1-c1cnc2c(-c3ccc(C(=O)O)cc3)cn([C@@H](c3ccccn3)C3CC3)c2c1` [P-0987, 4-[1-[(R)-cyclopropyl(2-pyridyl)methyl]-6-(3,5-dimethylisoxazol-4-yl)pyrrolo[3,2-b]pyridin-3-yl]benzoic acid], the half-inhibitory concentration (IC50) on BRD4-BD12 (1-477) and in the assay on MV-4-11 cells was less than 1 µM throughout.
In the case of `Cc1noc(C)c1-c1cnc2c(I)cn([C@H](c3ccccn3)C3CC3)c2c1` [P-0988, 4-[1-[(S)-cyclopropyl(2-pyridyl)methyl]-3-iodo-pyrrolo[3,2-b]pyridin-6-yl]-3,5-dimethyl-isoxazole], the 50% inhibitory concentration (IC50) at BRD4-BD12 (1-477) and in the assay on MV-4-11 cells was less than 1 µM each time.
With `COC(=O)c1ccc(-c2cn([C@H](c3ccccn3)C3CC3)c3cc(-c4c(C)noc4C)cnc23)cc1` [P-0989, methyl 4-[1-[(S)-cyclopropyl(2-pyridyl)methyl]-6-(3,5-dimethylisoxazol-4-yl)pyrrolo[3,2-b]pyridin-3-yl]benzoate], the IC50 on BRD4-BD12 (1-477) and with MV-4-11 cells was less than 1 µM throughout.
As to `Cc1noc(C)c1-c1cnc2c(-c3ccc(C(=O)O)cc3)cn([C@H](c3ccccn3)C3CC3)c2c1` [P-0990, 4-[1-[(S)-cyclopropyl(2-pyridyl)methyl]-6-(3,5-dimethylisoxazol-4-yl)pyrrolo[3,2-b]pyridin-3-yl]benzoic acid], the IC50 at BRD4-BD12 (1-477) and in the assay with MV-4-11 cells was less than 1 µM each time.
As to `Cc1noc(C)c1-c1ccc2c(I)cn(C(c3ccccc3)c3ccccn3)c2c1` (stereo not drawn) [P-0991, 4-[3-iodo-1-[phenyl(2-pyridyl)methyl]indol-6-yl]-3,5-dimethyl-isoxazole], the IC50 at BRD4-BD12 (1-477) and with MV-4-11 cells was less than 1 µM throughout.
For `Cc1noc(C)c1-c1ccc2c(-c3ccc(C(=O)O)cc3)cn(C(c3ccccc3)c3ccccn3)c2c1` (stereo not drawn) [P-0992, 4-[6-(3,5-dimethylisoxazol-4-yl)-1-[phenyl(2-pyridyl)methyl]indol-3-yl]benzoic acid], the IC50 at BRD4-BD12 (1-477) and in the assay on MV-4-11 cells was less than 1 µM each time.
As for `COC(=O)c1ccc(-c2cn(C(c3ccccn3)C3CCCC3)c3cc(-c4c(C)noc4C)cnc23)cc1` (stereo not drawn) [P-0993, methyl 4-[1-[cyclopentyl(2-pyridyl)methyl]-6-(3,5-dimethylisoxazol-4-yl)pyrrolo[3,2-b]pyridin-3-yl]benzoate], the IC50 on BRD4-BD12 (1-477) and in the assay with MV-4-11 cells was less than 1 µM in each case.
In the case of `COC(=O)Cc1ccc(-c2cn(C(c3ccccn3)C3CCCC3)c3cc(-c4c(C)noc4C)cnc23)cc1` (stereo not drawn) [P-0994, methyl 2-[4-[1-[cyclopentyl(2-pyridyl)methyl]-6-(3,5-dimethylisoxazol-4-yl)pyrrolo[3,2-b]pyridin-3-yl]phenyl]acetate], the IC50 on BRD4-BD12 (1-477) and in the assay on MV-4-11 cells was less than 1 µM each time.
As for `Cc1noc(C)c1-c1cnc2c(-c3ccc(C(=O)O)cc3)cn(C(c3ccccn3)C3CCCC3)c2c1` (stereo not drawn) [P-0995, 4-[1-[cyclopentyl(2-pyridyl)methyl]-6-(3,5-dimethylisoxazol-4-yl)pyrrolo[3,2-b]pyridin-3-yl]benzoic acid], the IC50 on BRD4-BD12 (1-477) and with MV-4-11 cells was less than 1 µM each time.
`Cc1noc(C)c1-c1cnc2c(-c3ccc(CC(=O)O)cc3)cn(C(c3ccccn3)C3CCCC3)c2c1` (stereo not drawn) [P-0996, 2-[4-[1-[cyclopentyl(2-pyridyl)methyl]-6-(3,5-dimethylisoxazol-4-yl)pyrrolo[3,2-b]pyridin-3-yl]phenyl]acetic acid]: the IC50 at BRD4-BD12 (1-477) and in the assay with MV-4-11 cells was less than 1 µM each time.
Take `Cc1noc(C)c1-c1cnc2c(I)cn(C(c3ccccn3)C3CCCC3)c2c1` (stereo not drawn) [P-0997, 4-[1-[cyclopentyl(2-pyridyl)methyl]-3-iodo-pyrrolo[3,2-b]pyridin-6-yl]-3,5-dimethyl-isoxazole]: the IC50 at BRD4-BD12 (1-477) and in the assay on MV-4-11 cells was less than 1 µM each time.
For `COC(=O)c1cc(-c2cn([C@@H](C)c3ccccn3)c3cc(-c4c(C)noc4C)cnc23)ccc1C` [P-0998, methyl 5-[6-(3,5-dimethylisoxazol-4-yl)-1-[(1S)-1-(2-pyridyl)ethyl]pyrrolo[3,2-b]pyridin-3-yl]-2-methyl-benzoate], the IC50 on BRD4-BD12 (1-477) and in the assay on MV-4-11 cells was less than 1 µM in each case.
Consider `Cc1ccc(-c2cn([C@@H](C)c3ccccn3)c3cc(-c4c(C)noc4C)cnc23)cc1C(=O)O` [P-0999, 5-[6-(3,5-dimethylisoxazol-4-yl)-1-[(1S)-1-(2-pyridyl)ethyl]pyrrolo[3,2-b]pyridin-3-yl]-2-methyl-benzoic acid], for which the IC50 at BRD4-BD12 (1-477) and in the assay with MV-4-11 cells was less than 1 µM throughout.
Turning to `Cc1noc(C)c1-c1cnc2c(-c3csc(C(=O)O)c3)cn([C@@H](C)c3ccccn3)c2c1` [P-1005, 4-[6-(3,5-dimethylisoxazol-4-yl)-1-[(1S)-1-(2-pyridyl)ethyl]pyrrolo[3,2-b]pyridin-3-yl]thiophene-2-carboxylic acid], the IC50 on BRD4-BD12 (1-477) is less than 1 µM; in the assay on MV-4-11 cells, 1 to 10 µM.
In the same order, the values of `COC(=O)c1ccc(-c2cn([C@@H](C)c3ccccn3)c3cc(-c4c(C)noc4C)cnc23)s1` [P-1006, methyl 5-[6-(3,5-dimethylisoxazol-4-yl)-1-[(1S)-1-(2-pyridyl)ethyl]pyrrolo[3,2-b]pyridin-3-yl]thiophene-2-carboxylate] are less than 1 µM and less than 1 µM.
With `COC(=O)c1ccc(-c2cn(C(c3ccccn3)C3CCC3)c3cc(-c4c(C)noc4C)cnc23)cc1` (stereo not drawn) [P-1011, methyl 4-[1-[cyclobutyl(2-pyridyl)methyl]-6-(3,5-dimethylisoxazol-4-yl)pyrrolo[3,2-b]pyridin-3-yl]benzoate], the IC50 on BRD4-BD12 (1-477) and in the assay on MV-4-11 cells was less than 1 µM in each case.
For the molecule `Cc1noc(C)c1-c1cnc2c(-c3ccc(C(=O)O)cc3)cn(C(c3ccccn3)C3CCC3)c2c1` (stereo not drawn) [P-1012, 4-[1-[cyclobutyl(2-pyridyl)methyl]-6-(3,5-dimethylisoxazol-4-yl)pyrrolo[3,2-b]pyridin-3-yl]benzoic acid], the 50% inhibitory concentration (IC50) on BRD4-BD12 (1-477) and in the assay on MV-4-11 cells was less than 1 µM each time.
For the molecule `COC(=O)Cc1ccc(-c2cn(C(c3ccccn3)C3CCC3)c3cc(-c4c(C)noc4C)cnc23)cc1` (stereo not drawn) [P-1013, methyl 2-[4-[1-[cyclobutyl(2-pyridyl)methyl]-6-(3,5-dimethylisoxazol-4-yl)pyrrolo[3,2-b]pyridin-3-yl]phenyl]acetate], the concentration for half-maximal inhibition (IC50) at BRD4-BD12 (1-477) and in the assay on MV-4-11 cells was less than 1 µM throughout.
With `Cc1noc(C)c1-c1cnc2c(-c3ccc(C(=O)O)cc3)cn(C(c3ccccn3)C3CCCCC3)c2c1` (stereo not drawn) [P-1014, 4-[1-[cyclohexyl(2-pyridyl)methyl]-6-(3,5-dimethylisoxazol-4-yl)pyrrolo[3,2-b]pyridin-3-yl]benzoic acid], the IC50 at BRD4-BD12 (1-477) and with MV-4-11 cells was less than 1 µM throughout.
Turning to `Cc1noc(C)c1-c1cnc2c(-c3ccc(CC(=O)O)cc3)cn(C(c3ccccn3)C3CCC3)c2c1` (stereo not drawn) [P-1015, 2-[4-[1-[cyclobutyl(2-pyridyl)methyl]-6-(3,5-dimethylisoxazol-4-yl)pyrrolo[3,2-b]pyridin-3-yl]phenyl]acetic acid], the IC50 on BRD4-BD12 (1-477) and in the assay with MV-4-11 cells was less than 1 µM throughout.
On to `COC(=O)c1ccc(-c2cn(C(c3ccccn3)C3CCCCC3)c3cc(-c4c(C)noc4C)cnc23)cc1` (stereo not drawn) [P-1016, methyl 4-[1-[cyclohexyl(2-pyridyl)methyl]-6-(3,5-dimethylisoxazol-4-yl)pyrrolo[3,2-b]pyridin-3-yl]benzoate], for which the IC50 at BRD4-BD12 (1-477) and in the assay on MV-4-11 cells was less than 1 µM in each case.
